Here are results for 7 molecules from patent US11286256B2, “Bicyclic inhibitors of histone deacetylase” (Alkermes, Inc., priority 2017, dated 2022).

Data set [1] addresses T1, HDAC2 (Homo sapiens, UniProt Q92769). As to the kind of experiment: HDAC2 recombinant enzymatic assay. Conditions: 5 h pre-incubation, 5 nM enzyme; read-out: HDAC recombinant enzymatic IC50 HDAC2. Also noted: purchased BPS Bioscience. It is filed as biochemical. The procedure:
(§1) The following describes an assay protocol for measuring the deacetylation of a peptide substrate by the enzymes HDAC2 or HDAC1.
(§2) All recombinant human HDACs were purchased from BPS Bioscience. The substrate, FAM-TSRHK(AC)KL-CONH, was synthesized at NanoSyn. Final assay reactions contained 100 mM HEPES (pH 7.5), 50 mM KCl, 0.1% BSA, 0.01% Triton X-100, 1% DMSO, 1 uM substrate and 5 nM HDAC enzyme. Enzyme and compounds were pre-incubated at 25° C. for 5 hours and reactions were initiated by addition of substrate. 10 uL reactions were incubated for 17 hours at 25° C. and terminated by the addition of 40 uL of buffer containing 100 mM HEPES (pH 7.5), 0.1% BSA, 0.01% Triton X-100 and 0.05% SDS. Substrate and product peptides present in each sample were separated electrophoretically using the LabChip 3000 capillary electrophoresis instrument. Change in the relative fluorescence intensity of the substrate and product peaks reflects enzyme activity. Reaction progress was determined as the product to sum ratio (PSR):P/(S+P), where P is the peak height of the product peptide and S is the peak height of the substrate peptide. Reactions were performed in duplicate at 12 concentrations, (3× serial dilutions starting at 30 uM). IC50 values were calculated using a 4 Parameter Logistic Model.

In data set [2] the target is T1, HDAC2. As to the kind of experiment: HDAC2 enzymatic inhibition assay in SY5Y cell lysate with HDAC-Glo2 substrate. Also on record: host or cells: SH-SY5Y. It is filed as cell-based. Conditions: SH-SY5Y cells, 5 h compound incubation, HDAC-Glo 2 reagent. The procedure: HDAC2 Enzymatic Inhibition Assay in SY5Y Cell Lysate with HDAC-Glo2 Substrate
SH-SY5Y cells (Sigma) were cultured in Eagle's Modified Essential Medium supplemented with 10% fetal bovine serum and pen/strep. Twenty-four hours prior to compound dosing 20 uL of cells were plated in white 384 well plates at a density of 1,500 cells/well. Compounds were serially diluted in neat DMSO and then diluted 1:100 v/v into media without FBS and mixed. Media was removed from the plated cells and the diluted compounds in serum free media (1% v/v final DMSO) were added and incubated at 37.0 for five hours. Ten uL of HDAC-Glo 2 reagent with 0.1% Triton X-100 was then added, the plate was mixed and allowed to develop at room temperature for 100 minutes. Plates were then read with a Spectramax LMax luminometer employing a 0.4 s integration time. Dose response curves were constructed with normalized data where CI-994 at 100 uM was defined as 100% inhibition and DMSO alone as 0% inhibition.

The target in a further data set is T2, HDAC1 (Homo sapiens, UniProt Q13547).
T2 construct: purchased BPS Bioscience
Briefly: HDAC1 recombinant enzymatic assay. Format: biochemical. Conditions: 5 h pre-incubation, 5 nM enzyme; read-out: HDAC recombinant enzymatic IC50 HDAC1. The protocol:
as §1, §2

In another data set the target is T3, CYP2D6 (Homo sapiens, UniProt P10635).
T3 construct: Human liver microsomes were obtained from BD Gentest; tissue BD Gentest; host or cells: human liver microsomes
Briefly: CYP inhibition assay in human liver microsomes (2D6). Conditions: for inhibition at 10 min, 10 µM: human liver microsomes; for inhibition of CYP2D6 (in words): 10 μM. It is filed as in vitro ADME. The procedure: Compounds were tested to evaluate their inhibitory potential on CYP2D6 and CYP3A4 (midazolam) using human liver microsomes. Human liver microsomes were obtained from BD Gentest, and each compound was run in duplicate.
The test compounds and reference inhibitors (quinidine for 2D6, ketoconazole for 3A4) were plated in a 96-well plate by transferring 8 μL of 10 mM stock solutions of compound in DMSO to 12 μL of acetonitrile. Individual inhibitor spiking solutions were prepared for CYP2D6 and CYP3A4 (8 μL of DMSO stock added to 12 μL of acetonitrile). Next added 400 μL of 0.2 mg/mL HLM to the assay wells and then added 2 μL of 400× test compound into the designated wells on ice. Next, added 200 μL of 0.2 mg/mL HLM to the assay wells and then added 1 μL of reference inhibitor solutions into the designated wells. The following solutions were added (in duplicate) to a 96-well assay plate on ice: The test compounds and reference inhibitors (quinidine for 2D6, ketoconazole for 3A4) were tested using the following experimental procedure:
10. Incubate the assay plate at 37° C. 5 min for 3A4, 10 min for 2D6.
11. Stop the reaction by adding 120 μL of ACN containing Internal Standard. For CYP3A4, the internal standard is 1′OH-midazolam-D4 (10 μM solution diluted to a final concentration of 0.1 μM by adding 100 μL internal standard stock to 10 mL ACN). For CYP2D6, the internal standard is 1-OH-Bufuralol-maleate-[D9] (49 μM solution diluted to a final concentration of 0.1 μM by adding 20 μL internal standard stock to 10 mL ACN).
The assessment on CYP isoform inhibition is as follows based on the assay results: if percentage of CYP inhibition is higher than 50%, indicates potent inhibition; if percentage of CYP inhibition is between 30-50%, indicates […]; if percentage of CYP inhibition is less than 30%, indicates slight or no inhibition. If the percentage of CYP inhibition is less than −30%, this indicates the compound may have some kind of activation of this isoform.

The IC50 is the concentration that gives 50% inhibition. The term inhibition denotes the relative decrease from the control value, in per cent.

T2 sequence (Q13547 whole entry): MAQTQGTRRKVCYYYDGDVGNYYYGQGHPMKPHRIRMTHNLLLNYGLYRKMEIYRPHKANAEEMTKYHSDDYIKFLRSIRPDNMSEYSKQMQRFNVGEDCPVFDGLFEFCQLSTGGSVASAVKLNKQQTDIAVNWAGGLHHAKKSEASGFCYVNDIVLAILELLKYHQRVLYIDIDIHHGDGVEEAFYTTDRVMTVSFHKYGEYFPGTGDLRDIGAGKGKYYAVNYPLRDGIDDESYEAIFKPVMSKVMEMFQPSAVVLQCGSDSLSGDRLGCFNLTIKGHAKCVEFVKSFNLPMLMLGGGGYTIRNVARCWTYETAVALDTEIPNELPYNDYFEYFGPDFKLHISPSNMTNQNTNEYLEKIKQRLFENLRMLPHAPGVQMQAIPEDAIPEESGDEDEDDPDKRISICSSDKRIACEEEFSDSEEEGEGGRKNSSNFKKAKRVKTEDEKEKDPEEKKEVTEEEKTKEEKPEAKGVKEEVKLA
T1 sequence (Q92769 whole entry): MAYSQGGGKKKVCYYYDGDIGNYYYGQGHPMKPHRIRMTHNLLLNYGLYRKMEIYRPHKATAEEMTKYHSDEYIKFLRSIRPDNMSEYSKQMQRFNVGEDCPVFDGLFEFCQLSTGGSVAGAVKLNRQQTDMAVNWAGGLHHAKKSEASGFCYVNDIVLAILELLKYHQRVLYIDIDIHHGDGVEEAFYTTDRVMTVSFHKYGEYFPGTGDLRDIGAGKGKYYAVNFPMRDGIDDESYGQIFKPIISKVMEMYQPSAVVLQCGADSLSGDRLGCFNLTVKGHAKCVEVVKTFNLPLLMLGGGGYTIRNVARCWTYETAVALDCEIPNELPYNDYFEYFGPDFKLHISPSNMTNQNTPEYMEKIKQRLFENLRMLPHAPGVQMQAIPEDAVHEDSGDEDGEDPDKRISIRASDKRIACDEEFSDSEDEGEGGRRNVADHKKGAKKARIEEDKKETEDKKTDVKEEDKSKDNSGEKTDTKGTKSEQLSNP
T3 sequence (P10635 whole entry): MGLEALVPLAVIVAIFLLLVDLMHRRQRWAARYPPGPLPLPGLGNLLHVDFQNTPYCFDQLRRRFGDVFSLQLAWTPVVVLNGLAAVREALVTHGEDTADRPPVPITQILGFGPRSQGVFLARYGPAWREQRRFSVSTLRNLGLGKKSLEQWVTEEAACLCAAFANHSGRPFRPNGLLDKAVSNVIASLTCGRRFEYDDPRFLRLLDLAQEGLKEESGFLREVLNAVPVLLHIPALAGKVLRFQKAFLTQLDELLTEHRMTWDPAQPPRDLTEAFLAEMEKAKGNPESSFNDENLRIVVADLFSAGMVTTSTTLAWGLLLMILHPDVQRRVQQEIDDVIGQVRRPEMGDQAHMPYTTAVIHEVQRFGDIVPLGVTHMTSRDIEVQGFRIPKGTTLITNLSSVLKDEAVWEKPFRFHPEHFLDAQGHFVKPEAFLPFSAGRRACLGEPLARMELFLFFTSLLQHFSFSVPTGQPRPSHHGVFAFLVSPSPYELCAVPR

On to `Nc1ccc(-c2ccc(F)cc2)nc1NC(=O)N1Cc2nccnc2C1` [Comparator B], for which the IC50 at HDAC2 [1] amounted to 475 nM; against HDAC2 [2], 485 nM; on HDAC1, 119 nM. The inhibition at 10 min, 10 µM against CYP2D6 turned out to be 9%.
On to `Nc1ccc(-c2cccs2)nc1NC(=O)N1Cc2nccnc2C1` [Comparator C], for which the IC50 is 301 nM at HDAC2 [1], 279 nM on HDAC2 [2] and 95 nM on HDAC1. The inhibition at 10 min, 10 µM on CYP2D6 came out at 0.2%.
Take `Cc1ncc2c(n1)CN(C(=O)Nc1nc(-c3cccs3)ccc1N)C2` [Compound 2]: the results for the IC50 at HDAC2 [2] and on HDAC1 were 577 nM and 133 nM, respectively. In addition, the “inhibition of CYP2D6 (in words)” value on CYP2D6 is reported as “no significant inhibition”. For the same molecule, on CYP2D6, the inhibition at 10 min, 10 µM is -5%.
On to `Nc1ccc(-c2ccc(F)cc2)cc1NC(=O)N1Cc2nccnc2C1` [Comparator A], for which the concentration for half-maximal inhibition (IC50) is 142 nM on HDAC2 [1], 369 nM on HDAC2 [2] and 27 nM on HDAC1. Further, the inhibition at 10 min, 10 µM at CYP2D6 was 34%.
Take `COCc1cc2c(cn1)CN(C(=O)Nc1nc(-c3ccc(F)cc3F)ccc1N)C2` [Compound 1]: the IC50 at HDAC2 [1] was determined as 510 nM; on HDAC2 [2] it was 777 nM; on HDAC1, 326 nM. The inhibition at 10 min, 10 µM on CYP2D6 is -1%.
For the molecule `Nc1ccc(-c2cccs2)nc1NC(=O)N1Cc2cncnc2C1` [Comparator E], the IC50 on HDAC2 [1] turned out to be 511 nM; against HDAC2 [2], 278 nM; on HDAC1, 142 nM. Moreover, the “inhibition of CYP2D6 (in words)” value at CYP2D6 was “significant inhibition”. Further, the inhibition at 10 min, 10 µM at CYP2D6 came out at 50%.
For `Nc1ccc(-c2ccc(F)cc2)nc1NC(=O)N1Cc2cncnc2C1` [Comparator D] the same measures were 627 nM, 331 nM, 239 nM, “significant inhibition” and 85%.
